Reference: patent publication US20220395487A1, “RIG-I INNATE IMMUNE RECEPTOR ANTAGONISTS AND METHODS OF USING SAME” (YALE UNIVERSITY, priority 2019, published 2022)

Legend:
RIG-I [1] = target: T1, RIG-I (Homo sapiens, UniProt O95786); assay: qRT-PCR of IFN and ISG levels in A549 cells with endogenous RIG-I; type: cell-based; conditions: SLR14 challenge, qRT-PCR normalized to HPRT
T1 sequence (O95786 1-925): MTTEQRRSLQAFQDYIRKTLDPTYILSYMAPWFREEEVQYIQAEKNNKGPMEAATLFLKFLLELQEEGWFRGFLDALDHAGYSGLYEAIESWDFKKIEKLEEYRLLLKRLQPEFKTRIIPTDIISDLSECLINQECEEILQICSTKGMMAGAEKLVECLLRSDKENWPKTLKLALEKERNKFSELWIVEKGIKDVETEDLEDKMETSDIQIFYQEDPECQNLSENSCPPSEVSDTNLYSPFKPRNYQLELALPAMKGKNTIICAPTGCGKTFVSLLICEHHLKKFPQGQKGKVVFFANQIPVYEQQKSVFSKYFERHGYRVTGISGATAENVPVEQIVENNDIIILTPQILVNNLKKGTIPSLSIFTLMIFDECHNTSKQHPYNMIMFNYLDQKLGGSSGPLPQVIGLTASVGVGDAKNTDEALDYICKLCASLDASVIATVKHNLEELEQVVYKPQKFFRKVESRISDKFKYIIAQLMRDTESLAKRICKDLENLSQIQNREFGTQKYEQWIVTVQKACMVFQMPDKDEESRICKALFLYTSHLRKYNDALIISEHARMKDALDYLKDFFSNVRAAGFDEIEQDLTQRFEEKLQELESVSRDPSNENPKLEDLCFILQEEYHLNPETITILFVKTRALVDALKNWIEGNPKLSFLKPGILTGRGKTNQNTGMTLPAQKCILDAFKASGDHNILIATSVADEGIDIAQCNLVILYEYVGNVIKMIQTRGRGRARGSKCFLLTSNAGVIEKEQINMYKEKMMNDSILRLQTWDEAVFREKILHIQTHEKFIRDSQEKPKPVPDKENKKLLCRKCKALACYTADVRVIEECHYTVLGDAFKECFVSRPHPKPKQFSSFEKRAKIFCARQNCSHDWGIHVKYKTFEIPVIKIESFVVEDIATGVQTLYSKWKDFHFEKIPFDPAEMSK
Protocol: In the second assay, inhibition of RIG-I that is endogenously expressed in A549 cells was evaluated by monitoring IFN and ISG levels by qRT-PCR. A549 cells were propagated in T75 flasks containing Dulbecco's Modified Eagle Medium, DMEM, (Life Technologies) supplemented with 10% heat-inactivated fetal bovine serum (Hyclone) and Non-Essential Amino Acids (Life Technologies). For the assay, 0.5 ml of cells at 100,000 cells/ml was seeded in 24-well plates. After 24 h, DMEM growth media was replaced with media containing drug, as described above for the IFN induction assay using HEK293T cells. After 30 minutes, the cells were transfected with 1 μg of the synthetic stem-loop RNA (SLR14), using the Lipofectamine 2000 transfection reagent. After 5-6 hours, cells were harvested and total RNA was isolated using E.Z.N.A total RNA isolation kit (Omega Bio-tek), following the manufacturer's instructions. Genomic DNA contamination was removed by DNase I treatment (Omega Bio-tek) directly on the Mini column. Total RNA was reverse-transcribed into cDNA using iScript Reverse Transcription Supermix (Bio-RAD) according to the manufacturer's instructions. […] Each sample was analyzed in triplicate and normalized to HPRT expression. Gene expression quantification was performed according to the Livak ΔΔCt method.

RIG-I [2] = target: T1, RIG-I; assay: NADH-coupled ATPase assay; type: biochemical; set-up: The native, full-length protein was expressed and purified using methods adapted from published protocols; SUMO (pET-SUMO vector; captured on Ni-NTA) (N, cleaved yes); made in house; host or cells: Rosetta II(DE3) Escherichia coli
Protocol: In this case, RIG-I was activated by a well-defined synthetic RNA hairpin duplex (SLR10-OH), which was added to a final concentration of 250 nM. A coupled assay mixture consisting of 1 mM NADH, 100 U/ml lactic dehydrogenase, 500 U/ml pyruvate kinase, 2.5 mM phosphoenol pyruvic acid was added to the sample. A 12-point serial dilution of the compound of interest was added in a DMSO vehicle such that DMSO concentrations were kept at a constant 2% over the entire drug dilution. The final concentration ranges for drug dilutions varied from compound to compound based on the potency of the small molecule in question. The dilutions covered ranges from 0 to as high as 100 μM (see association figures). Samples were incubated for at least 1 hour at RT. Reactions were initiated by the addition of a 1:1 ATP/MgCl2 mix to a final concentration of 5 mM.
The rate of ATP hydrolysis was determined indirectly by monitoring the conversion of NADH to NAD^+ that results in a loss of sample absorbance at 340 nm. Absorbance was measured over a 20 min time course using a sweeping read at 10 second intervals and a gain setting of 120 on a Biotek Synergy H1 Plate Reader. Mean kobs values were extrapolated for each time course and plotted against drug concentration, then fit to Eq. (1) to determine IC50 values. Each point was a based on two trials of three biological replicates with error bars representing the Standard deviation.

effect on IFN-β and ISG hRsad2 expression (RIG-I [1]): potent, dose-dependent effect | IC50 (RIG-I [2]; NADH-coupled ATPase assay, SLR10-OH activated, mean ± standard deviation, 3 measurements, read-out: IC50): 0.71 ± 0.02 µM | RIG-I ATPase inhibition, result in words (RIG-I [2]; SAR discussion of Table 1 compounds): nanomolar IC50 values
SMILES: CCC1(CC)C(=O)N=C2C1=C(OCc1ccccc1)C(=O)c1ccccc12 [RIG012, 4-Benzyloxy-3,3-diethyl-2H,3H,5H-benzo[g]indole-2,5-dione]
